The target of this experiment is T1, A. thaliana PRORP1 (Arabidopsis thaliana, UniProt Q66GI4).
T1 construct: made in house
T1 sequence (Q66GI4 77-572): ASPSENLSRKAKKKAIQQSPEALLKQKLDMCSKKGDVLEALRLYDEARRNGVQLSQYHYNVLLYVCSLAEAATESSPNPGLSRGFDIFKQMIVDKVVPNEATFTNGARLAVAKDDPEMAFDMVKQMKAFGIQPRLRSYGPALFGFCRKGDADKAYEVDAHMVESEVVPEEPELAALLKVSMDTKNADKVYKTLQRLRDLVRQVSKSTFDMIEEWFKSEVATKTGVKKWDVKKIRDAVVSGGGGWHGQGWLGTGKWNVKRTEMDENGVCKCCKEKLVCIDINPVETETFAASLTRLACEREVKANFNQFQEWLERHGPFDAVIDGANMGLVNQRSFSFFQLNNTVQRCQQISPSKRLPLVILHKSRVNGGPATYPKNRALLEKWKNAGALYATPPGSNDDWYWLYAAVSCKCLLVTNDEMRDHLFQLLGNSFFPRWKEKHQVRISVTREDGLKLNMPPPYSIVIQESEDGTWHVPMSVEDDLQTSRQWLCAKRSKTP
Description: FP cleavage assay, PRORP1 dose response. It is filed as biochemical. As to conditions: for activity at 6.25 µM: 6.25 μM of inhibitor, FP cleavage assay, read-out: PRORP1 Activity (%); for IC50: 30 min preincubation, 0.3 nM PRORP1, 800 nM pre-tRNA, 25 °C, apparent IC50 for juglone. The procedure:
Compounds gambogic acid (A) and juglone (B) were incubated with enzyme at double the reaction concentration for 30 min prior to the addition of an equal volume of substrate to initiate the reaction. PRORP1 reactions (shown in green) were performed with 0.3 nM PRORP1 and 800 nM pre-tRNA containing 40 nM Fl-pre-tRNA at 25 °C in 30 mM MOPS pH 7.8, 5 mM MgCl2, 100 mM NaCl, 1 mM TCEP, 500 nM (12 μg/ml) yeast tRNA, 5 mM spermidine, 6.65 μg/ml BSA, and 0.01% NP-40. MRPP1/2/3 reactions (shown in red) were performed using 50 nM MRPP3, 500 nM MRPP1/2, 500 nM pre-tRNA containing 40 nM Fl-pre-tRNA at 37 °C in 50 mM MOPS (pH 7.8), 1 mM TCEP, 4.5 mM MgCl2, and 100 mM NaCl. B. subtilis RNase P reactions (shown in blue) were performed using 20 nM RNase P and 500 nM pre-tRNA containing 40 nM Fl-pre-tRNA at 37 °C in 50 mM Tris, pH 7.2, 5 mM MgCl2, 100 mM KCl, 500 nM (12 μg/ml) yeast tRNA, 20 mM dithiothreitol (DTT), 10 mM spermidine, and 0.01% NP-40. Equation 1 was fit to each dataset.
The activity of PRORP1 catalyzed pre-tRNA cleavage was measured by monitoring the fluorescence anisotropy (FA) signal (λex = 485 nm and λem = 535 nm) over time at 25 °C in buffer conditions optimized for a high-throughput format, 30 mM MOPS pH 7.8, 5 mM MgCl2, 100 mM NaCl, 1 mM TCEP, 500 nM (12 μg/ml) yeast tRNA, 5 mM spermidine, 6.65 μg/ml BSA, and 0.01% NP-40. Yeast tRNA^mix (Roche) was used to reduce the number of compounds that inhibit PRORP1 activity by targeting tRNA. Prior to each reaction, pre-tRNA was heated for 3 min at 95 °C to unfold the RNA and refolded in the reaction buffer at room temperature (25 °C) for 30 min. Reactions were performed in black, 96-well plates (Corning Incorporation, #3686) using a TECAN plate-reader (Infinite F500, G-factor = 1.05) at 25 °C, and the FA values recorded. Reactions were initiated with the addition of substrate to enzyme. Experiments were done in the presence of excess substrate. The concentration of enzyme was 0.3 to 5 nM, the concentration of labeled substrate (Fl-pre-tRNA) was 40 nM, and the concentration of pre-tRNA was 120 to 4000 nM. The concentration of Fl-pre-tRNA was held constant in all reactions.
The dose response was measured using the FP assay as described above with varying concentrations of compound. Compounds were incubated with PRORP1 at twice the reaction concentration for 30 min prior to the addition of equal volumes of substrate to initiate the reaction. Experiments were done under multiple turnover conditions (same buffer conditions as the FP assay). […] PRORP1 activity was determined as a function of inhibitor concentration, and Equation 1 was fit to the data to determine the IC50 value. The standard error of the mean (SEM) is reported from the fit.(1) Activity(%)=100/1+([I]/IC50)^n

Take `O=C1C=CC(=O)c2c(O)cccc21` [juglone, 5-hydroxy-1,4-naphthalenedione]: the activity at 6.25 µM is 20.2% and the IC50 is 2100 ± 40 nM.

As to `CC(C)=CCC[C@]1(C)C=Cc2c(O)c3c(c(CC=C(C)C)c2O1)O[C@]12C(=C[C@@H]4C[C@H]1C(C)(C)O[C@@]2(C/C=C(/C)C(=O)O)C4=O)C3=O` [gambogic acid], the activity at 6.25 µM was 29.1% and the IC50 stood at 1010 ± 40 nM.
